Laboratory results taken from publication PMC7041945, “Misfolded proteins bind and activate death receptor 5 to trigger apoptosis during unresolved endoplasmic reticulum stress” (eLife, 2020).

Test system: CHOP, BiP, and DR5 mRNA in HCT116 cells
Test: qPCR of UPR target transcripts (CHOP, BiP, DR5)
Type: cell-based, Homo sapiens
Conditions: Rep 2; for avg. fold induction CHOP / avg. fold induction DR5 total / fold induction CHOP / fold induction DR5 total: relative to empty traffo; for avg. fold induction CHOP / avg. fold induction DR5 total: mean of 3 replicates
Description: Cells were grown in 6-well plates and harvested with 0.5 ml of TRIzol reagent (Life Technologies) per manufacturer’s protocol to extract RNA. For cDNA synthesis, 500 ng of total RNA was reverse transcribed with 2 μl of the SuperScript VILO master mix (Life Technologies # 11755050) in a total reaction volume of 10 μl following the manufacturer’s protocol for reaction temperature and duration. The reverse transcription product was diluted to 200 μl with 10 mM Tris-HCl pH 8.2 and used at 1:100 dilution for subsequent RT-PCR reactions.
PCR samples were prepared as described by manufacturer’s protocols from iQ SYBR Green Supermix (BioRad #17088800).
For each experiment, qRT-PCR reactions were set up in triplicate and run using a CFX96 Real Time System (Bio-Rad). Quantitation cycles were determined with CFX Manager 3.0 software (Bio-Rad) and then normalized to GAPDH as an internal control.

## INS-GFP: GFP-tagged proinsulin expressed from plasmid
3 hr
  avg. fold induction CHOP: 2.592
  avg. fold induction DR5 total: 0.7038
3 hr, replicate 1
  fold induction CHOP: 2.854
  fold induction DR5 total: 0.6229
  2^-(deltaCq) CHOP: 0.03284
  2^-(deltaCq) DR5 total: 0.01816
  Cq CHOP: 24.0903
  Cq DR5 total: 24.9448
  Cq(sample) - avg Cq(GAPDH), CHOP: 4.928
  Cq(sample) - avg Cq(GAPDH), DR5 total: 5.783
3 hr, replicate 2
  fold induction CHOP: 2.329
  fold induction DR5 total: 0.8572
  2^-(deltaCq) CHOP: 0.0268
  2^-(deltaCq) DR5 total: 0.02499
  Cq CHOP: 24.3837
  Cq DR5 total: 24.4842
  Cq(sample) - avg Cq(GAPDH), CHOP: 5.2218
  Cq(sample) - avg Cq(GAPDH), DR5 total: 5.322
3 hr, replicate 3
  fold induction CHOP: 2.592
  fold induction DR5 total: 0.6314
  2^-(deltaCq) CHOP: 0.02982
  2^-(deltaCq) DR5 total: 0.01841
  Cq CHOP: 24.2295
  Cq DR5 total: 24.9253
  Cq(sample) - avg Cq(GAPDH), CHOP: 5.068
  Cq(sample) - avg Cq(GAPDH), DR5 total: 5.763
7 hr
  avg. fold induction CHOP: 6.389
  avg. fold induction DR5 total: 1.383
7 hr, replicate 1
  fold induction CHOP: 6.347
  fold induction DR5 total: 1.604
  2^-(deltaCq) CHOP: 0.07302
  2^-(deltaCq) DR5 total: 0.04677
  Cq CHOP: 23.0759
  Cq DR5 total: 23.7188
  Cq(sample) - avg Cq(GAPDH), CHOP: 3.776
  Cq(sample) - avg Cq(GAPDH), DR5 total: 4.418
7 hr, replicate 2
  fold induction CHOP: 6.646
  fold induction DR5 total: 1.272
  2^-(deltaCq) CHOP: 0.07646
  2^-(deltaCq) DR5 total: 0.03708
  Cq CHOP: 23.0096
  Cq DR5 total: 24.0535
  Cq(sample) - avg Cq(GAPDH), CHOP: 3.709
  Cq(sample) - avg Cq(GAPDH), DR5 total: 4.753
7 hr, replicate 3
  fold induction CHOP: 6.175
  fold induction DR5 total: 1.275
  2^-(deltaCq) CHOP: 0.07103
  2^-(deltaCq) DR5 total: 0.03717
  Cq CHOP: 23.1157
  Cq DR5 total: 24.0502
  Cq(sample) - avg Cq(GAPDH), CHOP: 3.815
  Cq(sample) - avg Cq(GAPDH), DR5 total: 4.75
24 hr
  avg. fold induction CHOP: 5.115
  avg. fold induction DR5 total: 1.535
24 hr, replicate 1
  fold induction CHOP: 6.073
  fold induction DR5 total: 1.494
  2^-(deltaCq) CHOP: 0.06987
  2^-(deltaCq) DR5 total: 0.04358
  Cq CHOP: 23.5439
  Cq DR5 total: 24.225
  Cq(sample) - avg Cq(GAPDH), CHOP: 3.839
  Cq(sample) - avg Cq(GAPDH), DR5 total: 4.52
24 hr, replicate 2
  fold induction CHOP: 4.514
  fold induction DR5 total: 1.718
  2^-(deltaCq) CHOP: 0.05193
  2^-(deltaCq) DR5 total: 0.05009
  Cq CHOP: 23.972
  Cq DR5 total: 24.0239
  Cq(sample) - avg Cq(GAPDH), CHOP: 4.267
  Cq(sample) - avg Cq(GAPDH), DR5 total: 4.319
24 hr, replicate 3
  fold induction CHOP: 4.759
  fold induction DR5 total: 1.392
  2^-(deltaCq) CHOP: 0.05475
